pIC50: −log10 of the molar value.
Tested on: Hs746T
Test: MTT cytotoxicity assay, Hs746T
Format: cell-based
Details: Homo sapiens, stomach carcinoma, 48 hours, absolute IC50
Protocol: (§1) To test the cytotoxicity effect of the compounds NYH001-NYH005 in various cancer cell types, different cancer cells were treated with the compounds for 48 hours and analyzed using MTT assay. […] Absolute IC50 values of the compounds were calculated (Table 1, FIG. 1A-C).
With C=C(C)C(=O)O[C@H]1C/C(C)=C/C(=O)/C=C(/C)[C@@H](O)[C@H]2OC(=O)C(=C)C12 (stereo partly drawn) [NYH001, Molephantin] the pIC50 was 5.72.

Tested on: H1299
Test: MTT cytotoxicity assay, H1299
Format: cell-based
Details: Homo sapiens, NCI-H1299, H1299, lung carcinoma, 48 hours, absolute IC50
Protocol: as §1
Compound C=C(C)C(=O)O[C@H]1C/C(C)=C/C(=O)/C=C(/C)[C@@H](O)[C@H]2OC(=O)C(=C)C12 (stereo partly drawn) [NYH001, Molephantin] has a pIC50 of 5.53.

Tested on: DLD-1
Test: MTT cytotoxicity assay, DLD-1
Format: cell-based
Details: Homo sapiens; DLD-1, colon adenocarcinoma, 48 hours, MTT, absolute IC50; read-out: IC50
Protocol: as §1
With C=C(C)C(=O)O[C@H]1C/C(C)=C/C(=O)/C=C(/C)[C@@H](O)[C@H]2OC(=O)C(=C)C12 (stereo partly drawn) [NYH001, Molephantin] the pIC50 was 5.82.

Same assay, conditions: Homo sapiens; DLD-1 cells; read-out: IC50 (cytotoxic effect)
C=C(C)C(=O)O[C@H]1C/C(C)=C/C(=O)/C=C(/C)[C@@H](OC(=O)c2ccc([N+](=O)[O-])cc2)[C@H]2OC(=O)C(=C)C12 (stereo partly drawn) [NYH007] showed a pIC50 of 6.46.

Tested on: human hepatoma cell line (SMMC-7221)
Test: not given
Details: cited from earlier work
For Tomenphantopin-F, the IC50 is listed as “inactive”.
In the case of C=C(C)C(=O)O[C@H]1C/C(C)=C\[C@@]2(OC)C=C(C)[C@@H](O2)[C@H]2OC(=O)[C@@H](COC)[C@@H]21 [Tomenphantopin-C], the IC50 is given as “inactive”.

Same assay, conditions: read-out: IC50; cited from earlier work
In the case of C=C(C)C(=O)O[C@H]1C/C(C)=C/C(=O)/C=C(/C)[C@@H](O)[C@H]2OC(=O)C(=C)C12 (stereo partly drawn) [NYH001, Molephantin], the pIC50 is given as 5.24.

Tested on: MDA-MB-231
Test: MTT cytotoxicity assay, MDA-MB-231
Format: cell-based
Details: Homo sapiens, MDA-MB-231, breast adenocarcinoma, 48 hours, absolute IC50
Protocol: as §1
In the case of C=C(C)C(=O)O[C@H]1C/C(C)=C/C(=O)/C=C(/C)[C@@H](O)[C@H]2OC(=O)C(=C)C12 (stereo partly drawn) [NYH001, Molephantin], the pIC50 was 5.52.

Tested on: HCT116
Test: MTT cytotoxicity assay, HCT116
Format: cell-based
Details: Homo sapiens, HCT-116, HCT116, colon carcinoma, 48 hours, absolute IC50
Protocol: as §1
C=C(C)C(=O)O[C@H]1C/C(C)=C/C(=O)/C=C(/C)[C@@H](O)[C@H]2OC(=O)C(=C)C12 (stereo partly drawn) [NYH001, Molephantin] gave a pIC50 of 5.58.

Tested on: Huh7
Test: MTT cytotoxicity assay, Huh7
Format: cell-based
Details: Homo sapiens, Huh-7, Huh7, liver carcinoma, 48 hours, absolute IC50
Protocol: as §1
In the case of C=C(C)C(=O)O[C@H]1C/C(C)=C/C(=O)/C=C(/C)[C@@H](O)[C@H]2OC(=O)C(=C)C12 (stereo partly drawn) [NYH001, Molephantin], the pIC50 was 5.54.

Tested on: AGS
Test: MTT cytotoxicity assay, AGS
Format: cell-based
Details: Homo sapiens, stomach adenocarcinoma, 48 hours, absolute IC50
Protocol: as §1
C=C(C)C(=O)O[C@H]1C/C(C)=C/C(=O)/C=C(/C)[C@@H](O)[C@H]2OC(=O)C(=C)C12 (stereo partly drawn) [NYH001, Molephantin] gave a pIC50 of 5.81.

Tested on: PC3
Test: MTT cytotoxicity assay, PC3
Format: cell-based
Details: Homo sapiens, PC-3, PC3, prostate adenocarcinoma, 48 hours, absolute IC50
Protocol: as §1
Compound C=C(C)C(=O)O[C@H]1C/C(C)=C/C(=O)/C=C(/C)[C@@H](O)[C@H]2OC(=O)C(=C)C12 (stereo partly drawn) [NYH001, Molephantin] has a pIC50 of 5.61.

Tested on: Mcf-7
Test: MTT cytotoxicity assay, Mcf-7
Format: cell-based
Details: Homo sapiens, MCF7, Mcf-7, breast adenocarcinoma, 48 hours, absolute IC50
Protocol: as §1
C=C(C)C(=O)O[C@H]1C/C(C)=C/C(=O)/C=C(/C)[C@@H](O)[C@H]2OC(=O)C(=C)C12 (stereo partly drawn) [NYH001, Molephantin] showed a pIC50 of 5.32.

Tested on: A549
Test: MTT cytotoxicity assay, A549
Format: cell-based
Details: Homo sapiens, A549, lung carcinoma, 48 hours, absolute IC50
Protocol: as §1
C=C(C)C(=O)O[C@H]1C/C(C)=C/C(=O)/C=C(/C)[C@@H](O)[C@H]2OC(=O)C(=C)C12 (stereo partly drawn) [NYH001, Molephantin] showed a pIC50 of 4.82.

Tested on: human myeloid leukemia cell line K562
Test: not given
Details: cited from earlier work
In the case of Tomenphantopin-F, the IC50 is listed as “inactive”.
In the case of C=C(C)C(=O)O[C@H]1C/C(C)=C\[C@@]2(OC)C=C(C)[C@@H](O2)[C@H]2OC(=O)[C@@H](COC)[C@@H]21 [Tomenphantopin-C], the IC50 is given as “inactive”.

Same assay, conditions: read-out: IC50; cited from earlier work
In the case of C=C(C)C(=O)O[C@H]1C/C(C)=C/C(=O)/C=C(/C)[C@@H](O)[C@H]2OC(=O)C(=C)C12 (stereo partly drawn) [NYH001, Molephantin], the pIC50 is listed as 5.10.

Tested on: Hep3B
Test: MTT cytotoxicity assay, Hep3B
Format: cell-based
Details: Homo sapiens, liver carcinoma, 48 hours, absolute IC50
Protocol: as §1
For C=C(C)C(=O)O[C@H]1C/C(C)=C/C(=O)/C=C(/C)[C@@H](O)[C@H]2OC(=O)C(=C)C12 (stereo partly drawn) [NYH001, Molephantin], the pIC50 was 5.50.

Tested on: HCT116 cells xenograft
Test: HCT116 subcutaneous tumour xenograft mouse model
Format: in vivo
Details: HCT116 xenografted mice, 25 mg/kg intraperitoneal once every 2 days, after 21 days
Protocol: Female J:Nu outbred nude mice (5-6 weeks old) were injected subcutaneously at the right flank with 1×10^6 HCT116 or DLD-1 cells in 1:1 Hank's Balanced salt solution/Matrigel. Mice were assigned into treatment groups (4-5 mice per group) when tumour volumes reached 50-100 mm^3. Vehicle control (Ethanol:Kolliphor EL:saline=1:1:8), NYH001 (25 mg/kg), NYH002 (25 mg/kg) or 5-flurouracil (5-FU, 25 mg/kg) was given once every 2 days by intraperitoneal injection for 3 weeks. Bodyweight of the mice was taken every day and tumour size was measured twice a week. Tumour sizes were calculated using the formula, volume=(length×width^2)/2 mm^3. At the end of the 3 weeks treatment period, the mice were sacrificed and tumours excised. All procedures were approved by the NTU Institutional Animal Care and Use Committee (IACUC) and conducted in accordance with the IACUC protocol A20001.
With C=C(C)C(=O)O[C@H]1C/C(C)=C/C(=O)/C=C(/C)[C@@H](O)[C@H]2OC(=O)C(=C)C12 (stereo partly drawn) [NYH001, Molephantin] the “reduction of average tumor volume compared to vehicle control” value was 35.4% and the “reduction of average tumor weight compared to vehicle control” value was 41.7%.

Tested on: Du145
Test: MTT cytotoxicity assay, Du145
Format: cell-based
Details: Homo sapiens, DU-145, Du145, prostate carcinoma, 48 hours, absolute IC50
Protocol: as §1
Work on C=C(C)C(=O)O[C@H]1C/C(C)=C/C(=O)/C=C(/C)[C@@H](O)[C@H]2OC(=O)C(=C)C12 (stereo partly drawn) [NYH001, Molephantin] yielded a pIC50 of 5.38.

Source: patent US20250304544A1, “MOLEPHANTIN DERIVATIVES USEFUL IN THE TREATMENT OF CANCER” (Nanyang Technological University, priority 2021, published 2025)
